Measured values: US20240124504A1, “AROMATIC HETEROCYCLIC COMPOUND, AND PHARMACEUTICAL COMPOSITION AND APPLICATION THEREOF” (GT APEIRON THERAPEUTICS LIMITED, priority 2020, published 2024)
Like-named read-outs stand apart in the source and are kept apart here.

Columns and labels:
Format in all cases: biochemical
[1] = molecular target: CDK7/cyclinH/MAT1 complex (Homo sapiens, UniProt P50613); assay: In-vitro enzymatic inhibitory activity testing, CDK7 inhibition assay (Caliper EZ Reader II); conditions: CDK7/cyclinH/MAT1 6 nM, 180 min at 27° C.
Protocol: (§1) CDK12/CyclinK was diluted in an assay buffer (80 mM MES PH 6.5, 0.01% Tween 20, 50 ug/mL BSA, 10 mM MgCl2) to afford a corresponding enzyme solution with the 2.4 concentration. A compound was dissolved in dimethyl sulfoxide (DMSO) at a concentration of 10 mM. […] 2 ul of a test compound solution was mixed with 5 ul of the enzyme solution; after incubation for 10 min, 5 ul of the polypeptide substrate and ATP mixed solution was added; incubation was carried out for 180 min at 27° C.; and then, the reaction was terminated by adding 4 uL of EDTA with a concentration of 120 mM to each sample. […] A CDK9/cyclinT1 complex (8 nM) and a “5-FAM-CDK9tide” peptide substrate (2 IM, synthetic fluorophore-labeled peptide with the following sequence: 5-FAM-GSRTPMY-NH2, wherein 5-FAM was as defined above and NH2 represented C-terminal amide) were used for a CDK9 inhibition assay. […] A CDK2/cyclinE1 complex (0.5 nM) and “5-FAM-CDK7tide” (2 μM) as defined above were used for CDK2 inhibition assay.
(§2) A reaction mixture was analyzed on Caliper EZ Reader II by electrophoretic separation of a fluorogenic substrate and a phosphorylated product. Data were calculated by using GraphPad Prism version 6.0, and IC50 values were adjusted and obtained by using a nonlinear regression model of a dose response curve.

CDK2/cyclinE1 complex = CDK2/cyclinE1 complex (Homo sapiens, UniProt P24941); assay: In-vitro enzymatic inhibitory activity testing, CDK2 inhibition assay (Caliper EZ Reader II); conditions: CDK2/cyclinE1 0.5 nM, 180 min at 27° C.
Protocol: CDK12/CyclinK was diluted in an assay buffer (80 mM MES PH 6.5, 0.01% Tween 20, 50 ug/mL BSA, 10 mM MgCl2) to afford a corresponding enzyme solution with the 2.4 concentration. […] A CDK9/cyclinT1 complex (8 nM) and a “5-FAM-CDK9tide” peptide substrate (2 IM, synthetic fluorophore-labeled peptide with the following sequence: 5-FAM-GSRTPMY-NH2, wherein 5-FAM was as defined above and NH2 represented C-terminal amide) were used for a CDK9 inhibition assay. […] A CDK2/cyclinE1 complex (0.5 nM) and “5-FAM-CDK7tide” (2 μM) as defined above were used for CDK2 inhibition assay.
as §2

CDK9/cyclinT1 complex = CDK9/cyclinT1 complex (Homo sapiens, UniProt P50750); assay: In-vitro enzymatic inhibitory activity testing, CDK9 inhibition assay (Caliper EZ Reader II); conditions: CDK9/cyclinT1 8 nM, 180 min at 27° C.
Protocol: as §1, §2

[2] = molecular target: T1, CDK12 (aa686-1082)/cyclinK complex (Homo sapiens, UniProt Q9NYV4); assay: In-vitro enzymatic inhibitory activity testing, CDK12 inhibition assay (Caliper EZ Reader II); conditions: 180 min at 27° C.
T1 construct: A CDK12 (aa686-1082)/cyclinK complex (50 nM)
Protocol: An assay was carried out in a U-bottom 384-well plate (coming, 4512#), and the reaction temperature was 27° C. CDK7/CyclinH was diluted in an assay buffer (20 mM MES PH 6.75, 0.01% Tween 20, 50 ug/mL BSA, 6 mM MgCl2) to afford a corresponding enzyme solution with the 2.4× concentration. CDK2/CyclinE1 was diluted in an assay buffer (20 mM MES PH 6.75, 0.01% Tween 20, 50 ug/mL BSA, 6 mM MgCl2) to afford a corresponding enzyme solution with the 2.4× concentration. CDK9/CyclinT1 was diluted in an assay buffer (20 mM MES PH 6.75, 0.01% Tween 20, 50 ug/mL BSA, 10 mM MgCl2) to afford a corresponding enzyme solution with the 2.4× concentration. CDK12/CyclinK was diluted in an assay buffer (80 mM MES PH 6.5, 0.01% Tween 20, 50 ug/mL BSA, 10 mM MgCl2) to afford a corresponding enzyme solution with the 2.4 concentration. A compound was dissolved in dimethyl sulfoxide (DMSO) at a concentration of 10 mM. During use, the compound was diluted with DMSO into 10 concentration gradients from 25 nM to 500 uM, and respectively diluted by 8.3 folds in the assay buffer to afford a compound solution with a 6× concentration. A polypeptide substrate and ATP were diluted in the assay buffer to afford a polypeptide substrate and ATP mixed solution with a 2.4× concentration. 2 ul of a test compound solution was mixed with 5 ul of the enzyme solution; after incubation for 10 min, 5 ul of the polypeptide substrate and ATP mixed solution was added; incubation was carried out for 180 min at 27° C.; and then, the reaction was terminated by adding 4 uL of EDTA with a concentration of 120 mM to each sample. […]. Specifically, a CDK7/cyclinH/MAT1 complex (6 nM) and a “5-FAMCD K 7 tide” peptide substrate (2 μM, synthetic fluorophore-labeled peptide with the following sequence: 5-FAM-[…], wherein “5-FAM” refers to 5-carboxyfluorescein) were used for a CDK7 inhibition assay. A CDK9/cyclinT1 complex (8 nM) and a “5-FAM-CDK9tide” peptide substrate (2 IM, synthetic fluorophore-labeled peptide with the following sequence: 5-FAM-GSRTPMY-NH2, wherein 5-FAM was as defined above and NH2 represented C-terminal amide) were used for a CDK9 inhibition assay. A CDK12 (aa686-1082)/cyclinK complex (50 nM) and “5-FAM-CDK9tide” (2 μM) as defined above were used for a CDK12 inhibition assay. A CDK2/cyclinE1 complex (0.5 nM) and “5-FAM-CDK7tide” (2 μM) as defined above were used for CDK2 inhibition assay.
as §2

[3] = CDK12/cyclinK 50 nM, read-out: CDK12 IC50

Chain of CDK9/cyclinT1 complex (P50750 whole entry, species assumed): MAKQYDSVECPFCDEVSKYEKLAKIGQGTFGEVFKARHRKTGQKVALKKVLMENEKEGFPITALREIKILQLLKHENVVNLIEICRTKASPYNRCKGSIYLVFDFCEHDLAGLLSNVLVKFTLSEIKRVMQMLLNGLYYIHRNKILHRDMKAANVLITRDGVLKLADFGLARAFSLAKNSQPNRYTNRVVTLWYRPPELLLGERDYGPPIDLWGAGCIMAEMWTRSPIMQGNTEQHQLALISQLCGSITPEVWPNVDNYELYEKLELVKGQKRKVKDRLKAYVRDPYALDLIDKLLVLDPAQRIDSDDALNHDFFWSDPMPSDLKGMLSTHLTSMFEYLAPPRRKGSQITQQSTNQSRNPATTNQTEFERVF
Chain of CDK9/cyclinT1 complex (O60563 whole entry partner, species assumed): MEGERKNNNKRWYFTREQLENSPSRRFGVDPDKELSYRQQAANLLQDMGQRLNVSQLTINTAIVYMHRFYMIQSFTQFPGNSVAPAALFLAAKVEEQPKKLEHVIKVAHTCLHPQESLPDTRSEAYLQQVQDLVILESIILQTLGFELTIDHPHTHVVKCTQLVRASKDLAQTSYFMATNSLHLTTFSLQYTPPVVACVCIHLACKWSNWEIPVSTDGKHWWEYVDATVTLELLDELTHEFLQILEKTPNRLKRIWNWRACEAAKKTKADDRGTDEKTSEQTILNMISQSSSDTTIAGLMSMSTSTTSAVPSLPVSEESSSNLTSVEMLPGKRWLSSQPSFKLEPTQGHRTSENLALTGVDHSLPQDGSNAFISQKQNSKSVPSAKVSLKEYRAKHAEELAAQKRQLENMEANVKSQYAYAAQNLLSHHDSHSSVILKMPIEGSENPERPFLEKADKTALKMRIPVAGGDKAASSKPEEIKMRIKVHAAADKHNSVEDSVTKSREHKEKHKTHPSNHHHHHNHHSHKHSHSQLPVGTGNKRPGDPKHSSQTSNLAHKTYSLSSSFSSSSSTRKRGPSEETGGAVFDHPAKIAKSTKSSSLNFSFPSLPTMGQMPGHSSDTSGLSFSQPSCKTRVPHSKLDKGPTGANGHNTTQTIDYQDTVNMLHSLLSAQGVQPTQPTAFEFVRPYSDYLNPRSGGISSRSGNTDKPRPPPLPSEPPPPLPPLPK
T1 sequence (Q9NYV4 686-1082, species assumed): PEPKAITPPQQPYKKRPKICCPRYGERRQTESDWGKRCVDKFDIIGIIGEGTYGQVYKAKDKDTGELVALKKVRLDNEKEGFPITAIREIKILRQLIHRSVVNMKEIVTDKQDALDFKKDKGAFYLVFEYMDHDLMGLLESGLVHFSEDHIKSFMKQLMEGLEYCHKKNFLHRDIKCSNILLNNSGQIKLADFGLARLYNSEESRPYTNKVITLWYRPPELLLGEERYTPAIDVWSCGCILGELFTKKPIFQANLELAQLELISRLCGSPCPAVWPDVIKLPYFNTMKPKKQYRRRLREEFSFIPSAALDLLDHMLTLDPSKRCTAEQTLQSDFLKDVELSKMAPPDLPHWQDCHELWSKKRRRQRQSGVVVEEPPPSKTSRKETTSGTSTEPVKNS
T1 sequence (O75909 whole entry partner, species assumed, the tested form may be a part): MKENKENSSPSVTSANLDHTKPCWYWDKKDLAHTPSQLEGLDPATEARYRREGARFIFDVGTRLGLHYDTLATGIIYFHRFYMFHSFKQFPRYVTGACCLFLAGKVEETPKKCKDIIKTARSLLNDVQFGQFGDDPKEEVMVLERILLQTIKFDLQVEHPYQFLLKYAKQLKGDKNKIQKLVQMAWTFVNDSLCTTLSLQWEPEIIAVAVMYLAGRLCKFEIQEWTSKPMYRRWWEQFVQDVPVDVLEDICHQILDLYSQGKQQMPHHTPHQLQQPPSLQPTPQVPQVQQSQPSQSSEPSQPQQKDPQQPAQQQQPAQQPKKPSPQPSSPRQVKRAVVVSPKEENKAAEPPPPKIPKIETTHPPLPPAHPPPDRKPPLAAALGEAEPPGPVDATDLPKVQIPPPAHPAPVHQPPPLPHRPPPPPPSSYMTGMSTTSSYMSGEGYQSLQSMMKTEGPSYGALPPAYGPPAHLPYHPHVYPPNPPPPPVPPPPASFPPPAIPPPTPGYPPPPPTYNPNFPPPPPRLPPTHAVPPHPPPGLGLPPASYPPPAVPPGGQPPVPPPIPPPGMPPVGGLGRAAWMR
Chain of CDK7/cyclinH/MAT1 complex (P50613 whole entry, species assumed): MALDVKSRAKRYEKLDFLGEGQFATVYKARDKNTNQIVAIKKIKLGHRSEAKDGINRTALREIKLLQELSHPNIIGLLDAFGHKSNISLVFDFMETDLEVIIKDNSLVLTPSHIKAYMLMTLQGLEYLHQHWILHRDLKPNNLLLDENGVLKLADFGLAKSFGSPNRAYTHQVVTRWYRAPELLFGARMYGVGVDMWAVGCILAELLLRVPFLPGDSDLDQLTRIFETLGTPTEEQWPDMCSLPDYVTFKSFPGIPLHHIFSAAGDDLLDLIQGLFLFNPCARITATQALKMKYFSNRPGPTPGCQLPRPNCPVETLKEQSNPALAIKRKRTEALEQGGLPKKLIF
Chain of CDK7/cyclinH/MAT1 complex (P51946 whole entry partner, species assumed): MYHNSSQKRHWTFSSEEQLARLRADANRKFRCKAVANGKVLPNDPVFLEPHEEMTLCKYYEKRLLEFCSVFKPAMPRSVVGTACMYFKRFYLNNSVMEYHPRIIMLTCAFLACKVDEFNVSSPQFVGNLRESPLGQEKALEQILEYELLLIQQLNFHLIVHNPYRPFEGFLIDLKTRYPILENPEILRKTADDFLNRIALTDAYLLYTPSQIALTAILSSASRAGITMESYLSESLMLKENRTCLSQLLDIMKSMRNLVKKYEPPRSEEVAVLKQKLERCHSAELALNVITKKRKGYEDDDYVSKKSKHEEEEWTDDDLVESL
Chain of CDK7/cyclinH/MAT1 complex (P51948 whole entry partner, species assumed): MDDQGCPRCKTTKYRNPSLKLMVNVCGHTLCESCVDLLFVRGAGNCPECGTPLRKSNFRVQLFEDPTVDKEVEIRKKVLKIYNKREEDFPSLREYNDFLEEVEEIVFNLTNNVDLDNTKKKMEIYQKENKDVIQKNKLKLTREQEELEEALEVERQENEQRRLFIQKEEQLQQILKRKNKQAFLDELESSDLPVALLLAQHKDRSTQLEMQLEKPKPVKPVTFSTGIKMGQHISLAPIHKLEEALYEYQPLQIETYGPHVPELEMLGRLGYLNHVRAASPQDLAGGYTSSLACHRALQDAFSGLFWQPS

Work on `CP(C)(=O)c1cccc2c(-c3nc(N[C@@H]4CC(F)(F)C[C@@H]4O)ncc3C(F)(F)F)c[nH]c12` (relative stereo) [Compound 187, (3-(2-(cis-4,4-difluoro-2-hydroxycyclopentylamino)-5-(trifluoromethyl)pyrimidin-4-yl)-1H-indole-7-yl)dimethylphosphine oxide] yielded an IC50 [1] of 20 to 200 nM.
For `CP(C)(=O)c1cccc2c(-c3nc(N[C@@H]4CC(F)(F)C[C@H]4O)ncc3C(F)(F)F)c[nH]c12` (relative stereo) [Compound 188, (3-(2-(trans-4,4-difluoro-2-hydroxycyclopentylamino)-5-(trifluoromethyl)pyrimidin-4-yl)-1H-indole-7-yl)dimethylphosphine oxide], the IC50 [1] was less than 20 nM.
`CN(C)CC1CCCC1Nc1ncc(C(F)(F)F)c(-c2c[nH]c3c(P(C)(C)=O)cccc23)n1` (single isomer, unassigned) [Compound 136] was tested, and the IC50 (CDK2/cyclinE1 complex) was greater than 50000 nM, the IC50 [1] was 20 to 200 nM and the IC50 (CDK9/cyclinT1 complex) was greater than 50000 nM. The IC50 [2, 3] was greater than 50000 nM.
For `CP(C)(=O)c1cccc2c(-c3nc(NCC(O)C4CCC4)ncc3C(F)(F)F)c[nH]c12` (single isomer, unassigned) [Compound 139], the IC50 (CDK2/cyclinE1 complex) was 5000 to 50000 nM, the IC50 [1] was 20 to 200 nM and the IC50 (CDK9/cyclinT1 complex) was greater than 50000 nM. The IC50 [2, 3] was greater than 50000 nM.
In the case of `CP(C)(=O)c1cccc2c(-c3nc(NCC(O)C4CCC4)ncc3C(F)(F)F)c[nH]c12` (single isomer, unassigned) [Compound 140], the IC50 (CDK2/cyclinE1 complex) is reported as 5000 to 50000 nM, the IC50 [1] is reported as 20 to 200 nM and the IC50 (CDK9/cyclinT1 complex) is reported as greater than 50000 nM. It also gave an IC50 [2, 3] greater than 50000 nM.
For `C[C@@H](CO)Nc1ncc(C(F)(F)F)c(-c2c[nH]c3nc(C4CCCCO4)ccc23)n1` (single isomer, unassigned) [Compound 183], the IC50 [1] was 20 to 200 nM.
`C[C@@H](CO)Nc1ncc(C(F)(F)F)c(-c2c[nH]c3nc(C4CCCCO4)ccc23)n1` (single isomer, unassigned) [Compound 184] gave an IC50 [1] of 20 to 200 nM.
`CP(C)(=O)c1cccc2c(-c3nc(NC4CC(F)(F)CC4O)ncc3C(F)(F)F)c[nH]c12` (single isomer, unassigned) [Compound 189] was tested, and the IC50 [1] was 20 to 200 nM.
For `CP(C)(=O)c1cccc2c(-c3nc(NC4CC(F)(F)CC4O)ncc3C(F)(F)F)c[nH]c12` (single isomer, unassigned) [Compound 190], the IC50 [1] was 20 to 200 nM.
With `CP(C)(=O)c1cccc2c(-c3nc(NC4CC(F)(F)CC4O)ncc3C(F)(F)F)c[nH]c12` (single isomer, unassigned) [Compound 192] the IC50 (CDK2/cyclinE1 complex) was 5000 to 50000 nM and the IC50 [1] was 20 to 200 nM.
`CP(C)(=O)c1cccc2c(-c3nc(NC4CCC[C@H]4CN)ncc3C(F)(F)F)c[nH]c12` (stereo in doubt) [Compound 131, (3-(2-((cis-2-(aminomethyl)cyclopentyl)amino)-5-(trifluoromethyl)pyrimidin-4-yl)-1H-indole-7-yl)dimethylphosphine oxide] was tested, and the IC50 [1] was less than 20 nM.
In the case of `CP(C)(=O)c1cccc2c(-c3nc(NC4CCC[C@@H]4CN)ncc3C(F)(F)F)c[nH]c12` (stereo in doubt) [Compound 132, (3-(2-((trans-2-(aminomethyl)cyclopentyl)amino)-5-(trifluoromethyl)pyrimidin-4-yl)-1H-indole-7-yl)dimethylphosphine oxide], the IC50 [1] is reported as less than 20 nM.
Compound `CN(C)C[C@@H]1CCCC1Nc1ncc(C(F)(F)F)c(-c2c[nH]c3c(P(C)(C)=O)cccc23)n1` (stereo in doubt) [Compound 133, (3-(2-((cis-2-((dimethylamino)methyl)cyclopentyl)amino)-5-(trifluoromethyl)pyrimidin-4-yl)-1H-indole-7-yl)dimethylphosphine oxide] has an IC50 [1] of less than 20 nM.
`CN(C)C[C@H]1CCCC1Nc1ncc(C(F)(F)F)c(-c2c[nH]c3c(P(C)(C)=O)cccc23)n1` (stereo in doubt) [Compound 134, (3-(2-((trans-2-((dimethylamino)methyl)cyclopentyl)amino)-5-(trifluoromethyl)pyrimidin-4-yl)-1H-indole-7-yl)dimethylphosphine oxide] was tested, and the IC50 [1] was less than 20 nM.
`FC(F)(F)c1cnc(NC2CCCC3(CCCN3)C2)nc1-c1c[nH]c2nc(N3CCOCC3)ccc12` (centres unmarked) [Compound 38, N-(4-(6-morpholinyl-1H-pyrrolo[2,3-b]pyridin-3-yl)-5-(trifluoromethyl)pyrimidin-2-yl)-1-azaspiro[4.5]decan-7-amine] gave an IC50 (CDK2/cyclinE1 complex) of 5000 to 50000 nM, an IC50 [1] of 20 to 200 nM and an IC50 (CDK9/cyclinT1 complex) of 5000 to 50000 nM. The IC50 [2, 3] was 5000 to 50000 nM.
Compound `FC(F)(F)c1cnc(NC2CCC3(CCNCC3)C2)nc1-c1c[nH]c2nc(N3CCOCC3)ccc12` (centres unmarked) [Compound 42, N-(4-(6-morpholinyl-1H-pyrrolo[2,3-b]pyridin-3-yl)-5-(trifluoromethyl)pyrimidin-2-yl)-8-azaspiro[4.5]decan-2-amine] has an IC50 (CDK2/cyclinE1 complex) of 5000 to 50000 nM, an IC50 [1] of 20 to 200 nM and an IC50 (CDK9/cyclinT1 complex) of 5000 to 50000 nM. For the same compound, the IC50 [2, 3] was 5000 to 50000 nM.
Work on `FC(F)(F)c1cnc(N[C@@H]2CCC[C@@H]3CNC[C@@H]32)nc1-c1c[nH]c2nc(N3CCOCC3)ccc12` [Compound 45, (3aR,4R,7aS)-N-(4-(6-morpholinyl-1H-pyrrolo[2,3-b]pyridin-3-yl)-5-(trifluoromethyl)pyrimidin-2-yl)octahydro-1H-isoindole-4-amine] yielded an IC50 (CDK2/cyclinE1 complex) of 5000 to 50000 nM, an IC50 [1] of 20 to 200 nM and an IC50 (CDK9/cyclinT1 complex) of 5000 to 50000 nM. The IC50 [2, 3] was 5000 to 50000 nM.
With `CP(C)(=O)c1cccc2c(-c3nc(NCC4(O)CCCCCC4)ncc3C(F)(F)F)c[nH]c12` [Compound 152] the IC50 [1] was 20 to 200 nM.
`CP(C)(=O)c1cccc2c(-c3nc(N[C@H](CO)C4CCCCC4)ncc3C(F)(F)F)c[nH]c12` [Compound 169, (S)-(3-(2-((1-cyclohexyl-2-hydroxyethyl)amino)-5-(trifluoromethyl)pyrimidin-4-yl)-1H-indole-7-yl)dimethylphosphine oxide] gave an IC50 [1] of 20 to 200 nM.
`CCCC[C@H](CO)Nc1ncc(C(F)(F)F)c(-c2c[nH]c3c(P(C)(C)=O)cccc23)n1` [Compound 170, (R)-(3-(2-((1-hydroxyhexan-2-yl)amino)-5-(trifluoromethyl)pyrimidin-4-yl)-1H-indole-7-yl)dimethylphosphine oxide] gave an IC50 [1] of 20 to 200 nM.
`C[C@@H](CO)Nc1ncc(C(F)(F)F)c(-c2n[nH]c3c(P(C)(C)=O)cccc23)n1` [Compound 193, (S)-(3-(2-((1-hydroxypropan-2-yl)amino)-5-(trifluoromethyl)pyrimidin-4-yl)-1H-indazol-7-yl)dimethylphosphine oxide] was tested, and the IC50 [1] was 20 to 200 nM.
`CN[C@@H]1C[C@H]2O[C@@](C)([C@@H]1OC)n1c3ccccc3c3c4c(c5c6ccccc6n2c5c31)C(=O)NC4` [Staurosporine, staurosporine, reference compound] was tested, and the IC50 ([2]; CDK12 IC50, CDK12/cyclinK 50 nM) was 200 to 5000 nM.
